{
  "source": "patent US7074768B2",
  "about": "“Modified protein kinase A-specific oligonucleotides and methods of their use” (Idera Pharmaceuticals, Inc., priority 1995, dated 2006)",
  "key": {"RIα protein": {"system": "RIα protein", "test": "Histochemical analysis of GEO tumors: RIα", "type": "in vivo, human", "description": "(§1) Tumor specimens from the different groups of mice were examined by histochemical analysis at different time points to evaluate the expression of a variety of biological parameters. […] No other treatment was able to affect RIα expression."}, "[1]": {"system": "GEO human colon cancer cells", "test": "Soft agar growth of GEO cells", "type": "cell-based", "experimental": "(§2) Cells (10^4 cells/well) were seeded in 0.5 ml of 0.3% Difco Noble agar (Difco, Detroit, Mich.) supplemented with complete culture medium. This suspension was layered over 0.5 ml of 0.8% agar-medium base layer in 24 multiwell cluster dishes (Becton Dickinson) and treated with various concentrations of paclitaxel (day 0). The HYB 165 was added after 12 hrs (day 1) and on day 2, 3 and 4. 12 days after the last treatment, cells were stained with nitroblue tetrazolium (Sigma) and colonies larger than 0.05 mm were counted."}, "[2]": {"system": "1A9 human ovarian cancer cells", "test": "Soft agar growth of 1A9 cells", "type": "cell-based", "experimental": "Cell lines. The 1A9 cell line is a clone of the human ovarian carcinoma cell line, A2780. 1A9 cells were kindly provided by Giannakakou, NCI Bethesda, Md., USA. Cells were maintained in RPMI medium supplemented with 10% heat-inactivated FBS, 20 mM HEPES, pH 7.4 penicillin (100 UI/ml), streptomycin (100 μg/ml) and 4 mM glutamine (ICN, Irvine, UK) in a humified atmosphere of 95% air and 5% CO2 at 37° C.\n(§3) Soft agar growth. Cells (10^4 cells/well) were seeded in 0.5 ml of 0.3% Difco Noble agar (Difco, Detroit, Mich.) supplemented with complete culture medium. This suspension was layered over 0.5 ml of 0.8% agar-medium base layer in 24 multiwell cluster dishes (Becton Dickinson) and treated with various concentrations of HYB 165 or HYB508 every 48 hours for three times. After 12 days the cells were stained with nitroblue tetrazolium (Sigma, St. Louis, Mo.) and colonies larger than 0.05 mm were counted."}, "Ki67": {"system": "Ki67", "test": "Histochemical analysis of GEO tumors: Ki67 staining", "type": "in vivo", "details": "combination of taxol and HYB 165", "description": "as §1\n(§4) TGFα and AR are growth factors which bind to EGFR and control human colon cancer growth through autocrine and paracrine mechanisms (F. Ciardiello and G. Tortora, Clin. Cancer Res. 4:821–828 (1998); D. S. Salomon, Crit. Rev. Oncol. Hematol. 19:183–232 (1995))."}, "AR": {"system": "AR", "test": "Histochemical analysis of GEO tumors: AR", "type": "in vivo", "details": "after two cycles", "description": "(§5) Tumor specimens from the different groups of mice were examined by histochemical analysis at different time points to evaluate the expression of a variety of biological parameters.\nas §4"}, "[3]": {"system": "OVCAR-3 ovarian cancer cells", "test": "Soft agar growth of OVCAR-3 cells", "type": "cell-based, human", "experimental": "Cell lines. OVCAR human ovarian cancer cells were purchased from American Type Culture Collection (Rockville, Md., USA). Cells were maintained in DMEM and HAM'S F-12 (1:1) supplemented with 10% heat-inactivated FBS, 20 mM HEPES, pH 7.4, penicillin (100 UI/ml), streptomycin (100 μg/ml) and 4 mM glutamine (ICN, Irvine, UK) in a humified atmosphere of 95% air and 5% CO2 at 37° C.\nas §3, with “HYB295” for “HYB508”"}, "TGFα": {"system": "TGFα", "test": "Histochemical analysis of GEO tumors: TGFα", "type": "in vivo", "details": "single agent, after two cycles", "description": "as §5, §4"}, "[4]": {"system": "ZR75-1 human breast cancer cells", "test": "Soft agar growth of ZR75-1 cells", "type": "cell-based", "details": "for inhibition of cell growth: every 48 hours for three times (Examples 24, 25)", "experimental": "as §2, with “docetaxel” for “paclitaxel”, “[…] Twelve” for “The HYB 165 was added after 12 hrs (day 1) and on day 2, 3 and 4. 12”\nas §2, with “docetaxel” for “paclitaxel”, “[…] Twelve” for “The HYB 165 was added after 12 hrs (day 1) and on day 2, 3 and 4. 12”\nas §2, with “Soft agar growth. Cells” for “Cells”, “docetaxel” for “paclitaxel”, “3. Twelve” for “2, 3 and 4. 12”\nSoft agar growth. Cells (10^4 cells/well) were seeded in 0.5 ml of 0.3% Difco Noble agar (Difco, Detroit, Mich.) supplemented with complete culture medium. This suspension was layered over 0.5 ml of 0.8% agar-medium base layer in 24 multiwell cluster dishes (Becton Dickinson) and treated with various concentrations of docetaxel (day 0). The HYB 508 was added after 12 hrs and on day 2, 3 and 4. After 12 days the cells were stained with nitroblue tetrazolium (Sigma) and colonies larger than 0.05 mm were counted.\nSoft agar growth. Cells (10^4 cells/well) were seeded in 0.5 ml of 0.3% Difco Noble agar (Difco, Detroit, Mich.) supplemented with complete culture medium. […] After 12 days the cells were stained with nitroblue tetrazolium (Sigma) and colonies larger than 0.05 mm were counted.\nas §3, with “HYB295” for “HYB508”\nas §3"}},
  "data": [
    {"substance": "HYB 165: Hybrid 18-mer mixed backbone antisense to PKA RIα, GCGUGCCTCCTCACUGGC (SEQ ID NO:4), 2-O-methyl ribonucleotides at 5′ and 3′ ends (sugars by position and backbone not given here; 2'-O-methyl ribonucleotides at both ends, mixed backbone)", "values": [
      {"measurement": "expression of RIα protein in the tumor", "setting": "RIα protein; in combination with taxol, after two cycles", "result": "further increased"},
      {"measurement": "expression of RIα protein in the tumor", "setting": "RIα protein; single agent, after two cycles of treatment, FIG. 18", "result": "inhited expression of the target RIα protein in the tumor"},
      {"measurement": "growth inhibition", "setting": "[1]; HYB 165 0.5 μM after paclitaxel 1 nM", "result": 40, "unit": "%"},
      {"measurement": "growth inhibition", "setting": "[1]; HYB 165 0.5 μM after paclitaxel 5 nM", "result": 62, "unit": "%"},
      {"measurement": "growth inhibition", "setting": "[1]; HYB 165 0.5 μM after paclitaxel 10 nM", "result": 86, "unit": "%"},
      {"measurement": "growth inhibition", "setting": "[1]; HYB 165 0.5 μM alone", "result": "about 20%"},
      {"measurement": "cooperative effect of the combination", "setting": "[1]; HYB 165 0.5 μM, sequential combination with different doses of paclitaxel", "result": "cooperatively inhibit the growth of GEO cells"},
      {"measurement": "inhibition of cell growth", "setting": "[2]; 0.1 μM", "result": "approximately 5%"},
      {"measurement": "inhibition of cell growth", "setting": "[2]; 0.5 μM", "result": "about 41%"},
      {"measurement": "inhibition of cell growth", "setting": "[2]; 1 μM", "result": "about 90%"},
      {"measurement": "inhibition of cell growth", "setting": "[2]; 2.5 μM", "result": "over 95%"},
      {"measurement": "cell proliferation by Ki67 staining", "setting": "Ki67", "result": "almost completely suppressed cell proliferation"},
      {"measurement": "expression of AR", "setting": "AR; in combination with taxol", "result": "further enhanced"},
      {"measurement": "expression of AR", "setting": "AR; single agent", "result": "inhibited the expression of TGF α and AR"},
      {"measurement": "inhibition of cell growth", "setting": "[3]; 0.1 μM", "result": "approximately 25%"},
      {"measurement": "inhibition of cell growth", "setting": "[3]; 0.5 μM", "result": "about 58%"},
      {"measurement": "inhibition of cell growth", "setting": "[3]; 1 μM", "result": "about 75%"},
      {"measurement": "inhibition of cell growth", "setting": "[3]; 2.5 μM", "result": "about 95%"},
      {"measurement": "expression of TGFα", "setting": "TGFα", "result": "inhibited the expression of TGF α and AR"},
      {"measurement": "inhibition of cell growth", "setting": "[4]; 0.1 μM", "result": "approximately 5%"},
      {"measurement": "inhibition of cell growth", "setting": "[4]; 1 μM", "result": "about 34%"},
      {"measurement": "inhibition of cell growth", "setting": "[4]; 2.5 μM", "result": "over 85%"},
      {"measurement": "growth inhibition", "setting": "[4]; HYB 165 0.1 μM + C225 0.25 μg/ml (days 1, 3) after docetaxel 0.01 nM (day 0)", "result": 93, "unit": "%"},
      {"measurement": "growth inhibition", "setting": "[4]; HYB 165 0.1 μM + MAb C225 0.25 μg/ml", "result": 37, "unit": "%"},
      {"measurement": "growth inhibition", "setting": "[4]; HYB 165 0.1 μM + MAb C225 0.5 μg/ml", "result": 65, "unit": "%"},
      {"measurement": "growth inhibition", "setting": "[4]; HYB 165 0.1 μM + MAb C225 1 μg/ml", "result": 85, "unit": "%"},
      {"measurement": "growth inhibition", "setting": "[4]; HYB 165 0.1 μM + MAb C225 2.5 μg/ml", "result": 90, "unit": "%"},
      {"measurement": "growth inhibition", "setting": "[4]; HYB 165 0.1 μM after docetaxel 0.01 nM", "result": 40, "unit": "%"},
      {"measurement": "growth inhibition", "setting": "[4]; HYB 165 0.1 μM after docetaxel 0.03 nM", "result": 70, "unit": "%"},
      {"measurement": "growth inhibition", "setting": "[4]; HYB 165 0.1 μM after docetaxel 0.1 nM", "result": 86, "unit": "%"},
      {"measurement": "growth inhibition", "setting": "[4]; HYB 165 0.1 μM after docetaxel 0.3 nM", "result": 97, "unit": "%"},
      {"measurement": "growth inhibition", "setting": "[4]; HYB 165 0.1 μM alone (Example 13)", "result": "about 8%"},
      {"measurement": "growth inhibition", "setting": "[4]; HYB 165 0.1 μM alone (Example 21)", "result": "about 5%"},
      {"measurement": "growth inhibition", "setting": "[4]; HYB 165 0.1 μM alone (Example 23)", "result": "about 2%"},
      {"measurement": "growth inhibition", "setting": "[4]; HYB 165 0.5 μM + MAb C225 0.25 μg/ml", "result": 57, "unit": "%"},
      {"measurement": "growth inhibition", "setting": "[4]; HYB 165 0.5 μM + MAb C225 0.5 μg/ml", "result": 70, "unit": "%"},
      {"measurement": "growth inhibition", "setting": "[4]; HYB 165 0.5 μM + MAb C225 1 μg/ml", "result": 90, "unit": "%"},
      {"measurement": "growth inhibition", "setting": "[4]; HYB 165 0.5 μM + MAb C225 2.5 μg/ml", "result": 98, "unit": "%"},
      {"measurement": "growth inhibition", "setting": "[4]; HYB 165 0.5 μM after docetaxel 0.01 nM", "result": 65, "unit": "%"},
      {"measurement": "growth inhibition", "setting": "[4]; HYB 165 0.5 μM after docetaxel 0.03 nM", "result": 66, "unit": "%"},
      {"measurement": "growth inhibition", "setting": "[4]; HYB 165 0.5 μM after docetaxel 0.3 nM", "result": 99, "unit": "%"},
      {"measurement": "growth inhibition", "setting": "[4]; HYB 165 0.5 μM after docetaxel 0.1 1 nM", "result": 86, "unit": "%"},
      {"measurement": "growth inhibition", "setting": "[4]; HYB 165 0.5 μM alone (Example 21)", "result": "about 15%"},
      {"measurement": "growth inhibition", "setting": "[4]; HYB 165 0.5 μM alone (Example 23)", "result": "about 10%"},
      {"measurement": "cooperative effect of the combination", "setting": "[4]; sequential combination with different doses of docetaxel", "result": "cooperatively inhibits the growth of ZR75-1 cells"},
      {"measurement": "cooperative effect of the combination", "setting": "[4]; with MAb C225 0.25 μg/ml and docetaxel 0.01 nM", "result": "cooperatively inhibit the growth of ZR75-1 cells"},
      {"measurement": "cooperative effect of the combination", "setting": "[4]; with different doses of MAb C225", "result": "cooperatively inhibit the growth of ZR-75-1 cells"}
    ]}
  ]
}
